# Laboratory results reported in patent publication US20220202703A1, “IN SITU GEL-FORMING DELIVERY SYSTEMS, METHODS AND COMPOSITIONS” (Poly-Med, Inc., priority 2019, published 2022).
# Experiment: Erdafitinib batch release study in artificial urine at 37° C., HPLC
# Assay type: physicochemical
# Conditions: in solution / through in vitro study, HPLC PDA detection
# From the text: Scope: Load Erdafitinib into a limited number of proprietary delivery systems and perform a batch release study in artificial urine to determine release and stability of the active agent. Erdafitinib sourced from publicly available supplier having 99% purity. Obtained as fine yellow powder. Viscoprene® used as a hydrosetting gel carrier presenting as a high viscosity liquid. An encapsulant was used to provide a diffusion barrier around the Viscoprene/Erdafitinib matrix for some samples.
# Formulation 1: Viscoprene and diluent release matrix. Formulation 2: Viscoprene release matrix. Formulation 3: Viscoprene in Encapsulant A. Formulation 4: Viscoprene in Encapsulant B. Step 1: Prepared release matrices (Erdafitinib in Viscoprene) with or without diluent (active matrix). Each study specimen included approximately 12 mg of drug. Step 2: Active matrix was encapsulated for Formulations 3 and 4. Step 3: Formulations were placed in artificial urine (USP method) at 37° C. Step 4: At time points, artificial urine was changed to fresh artificial urine. Step 5: Samples were analyzed for Erdafitinib content by HPLC.
# An Isocratic HPLC method (non-stability indicating) able to identify Erdafitinib using a C18 column and water/acetonitrile mobile phase. Calibration curve generated with a R2 value of 0.9999. […] Sample preparation: Erdafitinib mixed readily into Viscoprene matrices. […]
smiles,measurement,setting,value
"COc1cc(OC)cc(N(CCNC(C)C)c2ccc3ncc(-c4cnn(C)c4)nc3c2)c1 [Erdafitinib, 1,2-Ethanediamine, N1-(3,5-dimethoxyphenyl)-N2-(1-methylethyl)-N1-(3-(1-methyl-1H-pyrazol-4-yl)-6-quinoxalinyl)-]",Erdafitinib stability (in words),,provisionally stable over a suitable timeframe
same,Erdafitinib stability (in words),listed as Erdatifinib,likely stable through in vitro study for extended duration
